Our source for the CC50 values is PubChem BioAssay AID2102 (Southern Research Specialized Biocontainment Screening …, 2009).

The assay relates to Host cell viability cytotoxicity counter-screen, SV40 T antigen hits. The assay can be described thus: cell viability loss from selected hits – cytotoxicity control for SV40 T antigen inhibitor project, dose response (AID 2102).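 Further: cells exposed to compounds for 72 hours.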
`COc1cnc(-c2ccccn2)nc1Oc1ccc(Cl)c2ccccc12`: the CC50 was 13.7 µM.

As to `COC1=C(Nc2ccc(O)cc2)C(=O)c2ccccc2C1=O`, the CC50 is 16.5 µM.

Consider `CNc1nc(-c2ccccc2)[n+](-c2ccc(C)cc2)s1`, for which the CC50 was 36.2 µM.

Regarding `CCN(CC)c1ccc(NC(=O)CCNS(=O)(=O)c2ccc3c(c2)CCC(=O)N3)c(C)c1`, the CC50 was 42.2 µM.

`Nc1cnc(Nc2ccc(Br)cc2)nc1N`: the CC50 was 42.2 µM.

On to `COc1cc(OC)c(-c2c3cc(O)c(=O)cc-3oc3cc(O)c(O)cc23)cc1OC`, for which the CC50 was 47.7 µM.

In the case of `CCCCNC(=O)c1sc(=S)n2c1[nH]c(=O)c1ccccc12`, the CC50 is 31.8 µM.

`CC(=O)N(c1ccc2oc(=O)sc2c1)S(=O)(=O)c1cccs1`: the CC50 is 33.8 µM.

In the case of `O=C(N/N=C/c1cc(Br)c(O)c(Br)c1)c1cc2c(ccc3ccccc32)o1`, the CC50 was 32.3 µM.

In the case of `COc1ccc(-n2c(=O)c3c4c(sc3n3c(=S)[nH]nc23)COC(C(C)C)C4)cc1` (centres undefined), the CC50 is 40.1 µM.

Turning to `CC(=O)N(c1ccc2oc(=O)sc2c1)S(=O)(=O)c1ccccc1`, the CC50 is 36.8 µM.

Turning to `COc1cccc(-n2c(SCc3cc(=O)oc4cc(O)c(O)cc34)nc3ccccc3c2=O)c1`, the CC50 was 18.2 µM.

Consider `CN(C)S(=O)(=O)c1cccc(-n2sc3ccccc3c2=O)c1`, for which the CC50 is 30.4 µM.

Consider `Oc1ccc(N2CCN(C(=S)NCCc3ccccc3)CC2)cc1`, for which the CC50 is 45 µM.

In the case of `CC1=NOC(=O)/C1=C\c1ccc(-c2ccccc2Br)o1`, the CC50 is 24.7 µM.

In the case of `CN1\C(=C/C=C/C=C/C=[N+](C)C)C(C)(C)c2ccccc21`, the CC50 is 21.7 µM.

In the case of `CCCCCCCCCCCCCCCC[N+](C)(C)CCN(Cc1ccc(OC)cc1)c1ncccn1`, the CC50 was 7.39 µM.

Consider `O=c1oc2cc(O)ccc2s1`, for which the CC50 was 31.2 µM.

`O=C1NC(=S)S/C1=C\c1ccc(SCc2ccco2)o1`: the CC50 is 15.2 µM.

As to `CCN(CC)c1ccc(NC(=O)C2CC(=O)N(Cc3ccccc3)C2)cc1` (centres undefined), the CC50 was 42.7 µM.

Regarding `COc1ccc(N2CCC(CNC(=S)Nc3c(C)cccc3C)C2)cc1` (centres undefined), the CC50 was 45.8 µM.

In the case of `Cc1ccccc1-n1sc2cc(F)ccc2c1=O`, the CC50 is 14.6 µM.

With `COc1cc(/C=C/C(=O)c2ccc([N+](=O)[O-])o2)ccc1O`, the CC50 was 44.1 µM.

`Cc1ccc(/C=C2/SC(=O)NC2=S)o1`: the CC50 is 48.1 µM.

Take `O=C(c1ccccc1)N1CCN(c2ccc(NCc3ccc4c(c3)OCO4)cc2)CC1`: the CC50 was 17.3 µM.

For `COc1cccc(CNc2ccc3[nH]c(=O)[nH]c3c2)c1OCc1ccccc1`, the CC50 was 37 µM.

For the compound `COCCN=C1Sc2nc3c(C)cccc3cc2CN1Cc1ccco1`, the CC50 was 23 µM.

As for `O=C(/C=C/c1ccc(O)c(O)c1)c1ccccc1O`, the CC50 is 26.3 µM.

As to `CC(C)c1ccc(S(=O)(=O)N2CCN(CC(=O)c3ccc(O)c(O)c3)CC2)cc1`, the CC50 is 31.3 µM.

For the compound `Cc1ccc2nc(-c3ccccn3)c(NC3CCCC3)n2c1`, the CC50 is 15.1 µM.

Consider `Cc1cc2c(N=O)c(NO)ccc2[nH]1`, for which the CC50 was 22.1 µM.

On to `O=c1cc(-c2ccc(O)c(O)c2)oc2cc(O)cc(O)c12`, for which the CC50 was 47.9 µM.

`CC(/C=C1\SC(=S)N(CCCC(=O)Nc2ccc(C(=O)O)c(O)c2)C1=O)=C\c1ccccc1`: the CC50 was 38.4 µM.

For `N#Cc1ccccc1CN1C(=O)S/C(=C/c2cccn2-c2cccc(C(=O)O)c2)C1=O`, the CC50 is 16.9 µM.

`CCOc1cc(N2CCOCC2)c(OCC)cc1NS(=O)(=O)c1ccc(Cl)s1`: the 50% cytotoxic concentration (CC50) was 40 µM.

As for `CCOc1ccc(NCc2cccn2-c2nnc(N3CCC(C(=O)NCCCN4CCCCC4CC)CC3)s2)cc1` (centres undefined), the CC50 was 49.8 µM.

Turning to `CCN(CC)c1ccc(/C=N/N2CCOCC2)cc1`, the CC50 is 49.4 µM.

`COc1cc(-c2cc(=O)c3ccccc3o2)ccc1O`: the CC50 was 35.7 µM.

`O=[N+]([O-])c1ccc(-[n+]2ccc3ccccc3c2)c([N+](=O)[O-])c1`: the CC50 was 29 µM.

With `COc1cc(Cl)ccc1NC(=O)COc1ccccc1C(=O)N1CCN(c2ccc(O)cc2)CC1`, the CC50 was 33.7 µM.

For `O=C1C(SCCO)=C(SCCO)C(=O)c2ccccc21`, the half-maximal cytotoxic concentration (CC50) is 28.2 µM.

`Cc1ccc(OCCC(=O)N2CCN(c3ccc(O)cc3)CC2)cc1`: the CC50 was 20.7 µM.

Turning to `Oc1ccc(/C=N/Nc2ccc(C(F)(F)F)cn2)cc1O`, the CC50 is 34.6 µM.

As for `Cc1ccc(-n2sc3ccccc3c2=O)cc1S(=O)(=O)N1CCCCC1`, the CC50 was 14.7 µM.

Regarding `CCCCC(CC)CN=C(N)NC(N)=NCCCCCCN=C(N)NC(N)=NCC(CC)CCCC` (centres undefined), the CC50 is 3.49 µM.

For the compound `Oc1ccc(-c2[nH]ncc2-c2cccc3cccnc23)c(O)c1`, the CC50 was 17.3 µM.

Take `O=c1c2ccccc2nc(COc2ccccc2)n1/N=C/c1ccc(O)c(O)c1`: the CC50 was 33.8 µM.

For `Cc1cc(C(=O)c2cccs2)c(N)s1`, the CC50 was 35.8 µM.

Regarding `CCS(=O)(=O)c1ncc(Cl)c(C(=O)Nc2ccc(S(=O)(=O)N3CCCC(C)C3)cc2)n1` (centres undefined), the CC50 was 31.2 µM.

Turning to `Cc1ccc(C2(C)NC(=O)N(CC(=O)Nc3nc(-c4ccccn4)cs3)C2=O)cc1` (centres undefined), the CC50 was 11.3 µM.

`Cc1ccc(-c2ccc(/C=C3\C(=O)ON=C3c3ccccc3)o2)c([N+](=O)[O-])c1`: the CC50 was 37.5 µM.

As for `Cc1ccc(S(=O)(=O)N2[C@@H](c3ccc(Cl)cc3)C(C(=O)O)=CC[C@H]2c2ccc(Cl)cc2)cc1`, the CC50 was 30.7 µM.

For `Cc1ccc(/C=N/n2c(-c3ccco3)n[nH]c2=S)cc1`, the CC50 was 24.7 µM.

Regarding `Cc1ccccc1/C=C/C(=O)c1ccc([N+](=O)[O-])o1`, the CC50 is 23.6 µM.

Regarding `CCOC(=O)c1[nH]nc(-c2cc(CC)c(O)cc2O)c1-c1cscn1`, the CC50 is 33.7 µM.

For the compound `Oc1ccc(Nc2nc(N3CCCC3)c3ccccc3n2)cc1`, the CC50 was 30.7 µM.

Take `Cc1nc2ncccn2c1-c1csc(Nc2ccc(N(C)C)cc2)n1`: the CC50 was 27.5 µM.

In the case of `CCCc1cc(-c2n[nH]c(C(=O)OCC)c2-c2cscn2)c(O)cc1O`, the CC50 was 11.1 µM.

As to `O=C(NN1C(=O)/C(=C/C=C/c2ccco2)SC1=S)c1ccccc1O`, the CC50 is 40.6 µM.

With `CCN(CC)c1ccc(/C=C2\C(=O)N(c3nnc(C)c(=O)[nH]3)N=C2C)cc1`, the CC50 is 46.4 µM.

Turning to `COc1cc(CNc2ccc(N3CCOCC3)cc2)ccc1OCC(=O)NC(C)(C)C`, the 50% cytotoxic concentration (CC50) was 30.8 µM.

In the case of `C=CCn1c(=S)[nH]c2scc(-c3ccco3)c2c1=O`, the CC50 is 32.5 µM.

As for `C=CCn1c(SCC(C)=O)nc2scc(-c3ccco3)c2c1=O`, the CC50 is 48.4 µM.

For the compound `O=C(NC1CCCC1)c1sc(=S)n2c1[nH]c(=O)c1ccccc12`, the CC50 is 15.9 µM.

Take `Cc1c(C)n(Cc2ccccc2)c2ncnc(NN)c12`: the CC50 is 6.12 µM.

Consider `CCOc1ccc(NCc2cccn2-c2nnc(N3CCC(C(=O)NCCCN4CC(C)CC(C)C4)CC3)s2)cc1` (centres undefined), for which the CC50 was 36.9 µM.

For `CN(C)c1ccc(NS(=O)(=O)c2cccc(Cl)c2)cc1`, the 50% cytotoxic concentration (CC50) was 47.2 µM.

In the case of `COc1ccc(N2CCC(CNC(=S)Nc3ccc(C)cc3C)C2)cc1` (centres undefined), the CC50 was 15 µM.

`Cc1c(Br)c(=O)oc2c(Br)c(O)c(O)cc12`: the CC50 is 49.2 µM.

With `C=C1C(=O)O[C@H]2[C@H]1[C@H](OC(=O)CC(=O)O[C@@H]1C[C@@H](C)[C@@H]3C=CC(=O)[C@@]3(C)[C@H]3OC(=O)C(=C)[C@H]13)C[C@@H](C)[C@H]1C=CC(=O)[C@]12C`, the CC50 is 3.95 µM.

As for `CCC[n+]1c2ccccc2cc2ccccc21`, the CC50 is 23.8 µM.

For the compound `O=C1NC(=S)S/C1=C\c1ccc(SCc2ccccc2)o1`, the CC50 was 30 µM.

On to `COc1ccc(N2CCC(CNC(=S)Nc3c(C)cc(C)cc3C)C2)cc1` (centres undefined), for which the CC50 was 15.9 µM.

Take `Oc1ccc(CCNc2c3ccccc3nc3ccccc23)cc1O`: the CC50 is 39.3 µM.

`Clc1ccccc1CSc1nnc(-c2ccco2)c(-c2ccco2)n1`: the CC50 was 24.6 µM.

`Oc1cc2c(c(Cl)c1O)CCNCC2c1ccccc1` (centres undefined): the CC50 is 41 µM.

With `CC1=C(C(=O)OCC(C)C)C(c2cccs2)NC(=S)N1` (centres undefined), the CC50 was 21 µM.

Turning to `CCOc1c(Br)cc(CNc2ccc(N3CCOCC3)cc2)cc1OC`, the CC50 is 13.8 µM.

Regarding `CCOC(=O)c1c(N2C(=O)Nc3cc(Cl)c(Cl)cc3N2O)sc2c1CCCCC2`, the CC50 is 15.6 µM.

In the case of `CC(=O)Nc1sc(N/N=C\c2ccco2)nc1-c1cccs1`, the CC50 is 49.8 µM.

Consider `COc1cc(CNc2ccc(N3CCCCC3)cc2)ccc1OCC(=O)NC(C)(C)C`, for which the CC50 is 24.5 µM.

As to `O=c1cc2oc3cc(O)c(O)cc3c(-c3ccccc3[N+](=O)[O-])c-2cc1O`, the CC50 is 24.1 µM.

For `O=C(CCl)Nc1ccc(N2CCCCCC2)cc1`, the CC50 is 47.1 µM.

For the compound `CCOc1c(Br)cc(CNc2ccc(N3CCN(C(C)=O)CC3)cc2)cc1OC`, the CC50 is 14.2 µM.

On to `Cc1ccc(S(=O)(=O)N2CCCOC2CNC(=O)C(=O)NCCc2c[nH]c3ccccc23)cc1` (centres undefined), for which the CC50 is 27.7 µM.

With `O=C1NC(=Nc2ccc(O)cc2)S/C1=C\C=C\c1ccco1`, the CC50 is 30.2 µM.

`O=C(O)c1ccc(-n2cccc2/C=C2/NC(=O)N(c3ccccc3)C2=O)cc1`: the CC50 was 15.6 µM.

With `CCS(=O)(=O)c1ncc(Cl)c(C(=O)Nc2ccc(S(=O)(=O)N3CCC(C)CC3)cc2)n1`, the CC50 is 48.6 µM.

Take `CCCC[n+]1c2ccccc2cc2ccccc21`: the CC50 is 23.9 µM.

Turning to `O=S(=O)(c1ccc(NC(=S)N2CCN(c3ccc(O)cc3)CC2)cc1)N1CCOCC1`, the CC50 was 33 µM.

As for `O=C(CCOc1ccccc1)N1CCN(c2ccc(O)cc2)CC1`, the CC50 is 31.5 µM.

`O=C(CCSc1ccc(Cl)cc1)N1CCN(c2ccc(O)cc2)CC1`: the CC50 is 14.6 µM.

Take `CCCc1nc2ccccc2c(=O)n1/N=C/c1ccc(O)c(O)c1`: the half-maximal cytotoxic concentration (CC50) was 48.4 µM.

For `COc1ccc(NC2CCCN(Cc3cccc4cnccc34)C2)cc1OC` (centres undefined), the CC50 was 35.9 µM.
